From patent US20200055839A1 (priority 2017, published 2020) come the findings set out here.

As usually defined, the EC50 is the concentration at which the effect is half-maximal. Higher therefore signals weaker potency.

The assay has as its system NL-RLuc virus. Nature of the assay: Inhibition of HIV replication (NL-RLuc virus, luciferase readout in MT-2 cells). It counts as cell-based. Conditions: Human immunodeficiency virus 1, MT2, 120 h, MT-2 cells infected with NL-RLuc virus, 5 days of incubation, 10% FBS, at least 2 experiments. Summed up:
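EC50 derived via median effect equation from at least 2 experiments, using luciferase expression as virus-growth readout. Replication-competent NL-RLuc reporter virus (nef partly replaced by Renilla luciferase) infected MT-2 cells with serial compound dilutions; 5-day incubation in RPMI 1640 plus 10% FBS.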
`Cc1ncc(-c2ccccc2C#N)c(N2CCC(C)(C)CC2)c1[C@H](OC(C)(C)C)C(=O)O` [Example 153, (2S)-2-(tert-Butoxy)-2-[5-(2-cyanophenyl)-4-(4,4-dimethylpiperidin-1-yl)-2-methylpyridin-3-yl]acetic acid] yielded an EC50 of 29 nM.

Compound `Cc1ncc(-c2cncc(F)c2)c(N2CCC(C)(C)CC2)c1[C@H](OC(C)(C)C)C(=O)O` [Example 148, (2S)-2-(tert-Butoxy)-2-[4-(4,4-dimethylpiperidin-1-yl)-5′-fluoro-6-methyl-[3, 3′-bipyridine]-5-yl]acetic acid] gave an EC50 of 7 nM.

`CCC(C)(C)O[C@H](C(=O)O)c1c(C)ncc(-c2ccc(OCCc3ccc(F)cc3)c(F)c2)c1N1CCC(C)(C)CC1` [Example 226, (S)-2-(4-(4,4-Dimethylpiperidin-1-yl)-5-(3-fluoro-4-(4-fluorophenethoxy)phenyl)-2-methylpyridin-3-yl)-2-(tert-pentyloxy)acetic acid] yielded a half-maximal effective concentration (EC50) of 5 nM.

In turn, `COc1c(F)cc(-c2c(CN(C)C)nc(C)c([C@H](OC(C)(C)C)C(=O)O)c2N2CCC(C)(C)CC2)cc1F` [Example 197, (2S)-2-(tert-Butoxy)-2-[5-(3,5-difluoro-4-methoxyphenyl)-6-[(dimethylamino)methyl]-4-(4,4-dimethylpiperidin-1-yl)-2-methylpyridin-3-yl]acetic acid] displayed a half-maximal effective concentration (EC50) of 11 nM.

Compound `Cc1nc(NCc2ccccn2)c(-c2ccc(OCCc3ccc(F)cc3)cc2)c(N2CCC(C)(C)CC2)c1[C@H](OC(C)(C)C)C(=O)O` [Example 97, (S)-2-(tert-Butoxy)-2-(4-(4,4-dimethylpiperidin-1-yl)-5-(4-(4-fluorophenethoxy)phenyl)-2-methyl-6-((pyridin-2-ylmethyl)amino)pyridin-3-yl)acetic acid] came in with an EC50 of 5 nM.

For the compound `Cc1ncc(-c2cnc(OCCc3ccccc3)c(F)c2)c(N2CCC(C)(C)CC2)c1[C@H](OC(C)(C)C)C(=O)O` [Example 240, (S)-2-(tert-Butoxy)-2-(4-(4,4-dimethylpiperidin-1-yl)-5′-fluoro-6-methyl-6′-phenethoxy-[3,3′-bipyridin]-5-yl)acetic acid], a half-maximal effect (EC50) was put at 1 nM.

Compound `Cc1ncc(-c2ccc([C@H](O)CC(C)C)nc2)c(N2CCC(C)(C)CC2)c1[C@H](OC(C)(C)C)C(=O)O` [Example 433, (S)-2-tert-butoxy-2-(4-(4,4-dimethylpiperidin-1-yl)-6′-((R)-1-hydroxy-3-methylbutyl)-6-methyl-3,3′-bipyridin-5-yl)acetic acid] returned an EC50 of 25 nM.

Regarding `Cc1nc(NCCN2CCOCC2)c(-c2ccc(OCCc3ccc(F)cc3)cc2)c(N2CCC(C)(C)CC2)c1[C@H](OC(C)(C)C)C(=O)O` [Example 26, (S)-2-(tert-Butoxy)-2-(4-(4,4-dimethylpiperidin-1-yl)-5-(4-(4-fluorophenethoxy)phenyl)-2-methyl-6-((2-morpholinoethyl)amino)pyridin-3-yl)acetic acid], the EC50 came out at 0.5 nM.

With `Cc1ncc(-c2ccc(OCc3cccc(F)c3)cn2)c(N2CCC(C)(C)CC2)c1[C@H](OC(C)(C)C)C(=O)O` [Example 343, (2S)-2-(tert-butoxy)-2-[4′-(4,4-dimethylpiperidin-1-yl)-5-[(3-fluorophenyl)methoxy]-6′-methyl-[2,3′-bipyridine]-5′-yl]acetic acid], it took 2 nM to reach a half-maximal effect (EC50).

Turning to `Cc1ncc(-c2cnc(O[C@@H](C)C(C)C)c(F)c2)c(N2CCC(C)(C)CC2)c1[C@H](OC(C)(C)C)C(=O)O` [Example 370, (2S)-2-(tert-butoxy)-2-[4-(4,4-dimethylpiperidin-1-yl)-5′-fluoro-6-methyl-6′-{[(2S)-3-methylbutan-2-yl]oxy}-[3,3′-bipyridine]-5-yl]acetic acid], the response was half-maximal at 1 nM (EC50).

As for `Cc1ccc(CCOc2ccc(-c3cnc(C)c([C@H](OC(C)(C)C)C(=O)O)c3N3CCC(C)(C)CC3)nc2)cc1F` [Example 332, (2S)-2-(tert-butoxy)-2-[4′-(4,4-dimethylpiperidin-1-yl)-5-[2-(3-fluoro-4-methylphenyl)ethoxy]-6′-methyl-[2,3′-bipyridine]-5′-yl]acetic acid], the concentration for a half-maximal effect (EC50) stood at 0.5 nM.

Turning to `Cc1ncc(-c2cnc(OCCc3ccc(F)cc3)cn2)c(N2CCC(C)(C)CC2)c1[C@H](OC(C)(C)C)C(=O)O` [Example 16, (S)-2-(tert-Butoxy)-2-(4-(4,4-dimethylpiperidin-1-yl)-5-(5-(4-fluorophenethoxy)pyrazin-2-yl)-2-methylpyridin-3-yl)acetic acid], a half-maximal response (EC50) required 2 nM.

Take `Cc1nc(C(N)=O)c([C@H](OC(C)(C)C)C(=O)O)c(N2CCC(C)(C)CC2)c1-c1ccc(OCCc2ccc(F)cc2)cc1` [Example 6, (S)-2-(tert-Butoxy)-2-(2-carbamoyl-4-(4,4-dimethylpiperidin-1-yl)-5-(4-(4-fluorophenethoxy)phenyl)-6-methylpyridin-3-yl)acetic acid]: the response was half-maximal at 14 nM (EC50).

As to `Cc1cccc(CCOc2ccc(-c3cnc(C)c([C@H](OC(C)(C)C)C(=O)O)c3N3CCC(C)(C)CC3)nc2)c1` [Example 290, (2S)-2-(tert-butoxy)-2-[4′-(4,4-dimethylpiperidin-1-yl)-6′-methyl-5-[2-(3-methylphenyl)ethoxy]-[2,3′-bipyridine]-5′-yl]acetic acid], the EC50 was 1 nM.

With `Cc1ncc(-c2ccc([C@@H](O)CC(C)C)nc2)c(N2CCC(C)(C)CC2)c1[C@H](OC(C)(C)C)C(=O)O` [Example 432, (S)-2-tert-Butoxy-2-(4-(4,4-dimethylpiperidin-1-yl)-6′-((S)-1-hydroxy-3-methylbutyl)-6-methyl-3, 3′-bipyridin-5-yl)acetic acid], the EC50 was 32 nM.

With `Cc1ncc(-c2ccc(C(F)CC(C)C)nc2)c(N2CCC(C)(C)CC2)c1[C@H](OC(C)(C)C)C(=O)O` (stereo partly drawn) [Example 411, (2S)-2-(tert-Butoxy)-2-(4-(4,4-dimethylpiperidin-1-yl)-6′-(1-fluoro-3-methylbutyl)-6-methyl-[3, 3′-bipyridin]-5-yl)acetic acid], the EC50 was found to be 20 nM.

In turn, `CC1(C)CCN(c2c(-c3ccc(OCCc4ccc(F)cc4)cn3)cnc(CO)c2[C@H](OC(C)(C)C)C(=O)O)CC1` [Example 269, (S)-2-(tert-Butoxy)-2-(4′-(4,4-dimethylpiperidin-1-yl)-5-(4-fluorophenethoxy)-6′-(hydroxymethyl)-[2, 3′-bipyridin]-5′-yl)acetic acid] yielded a concentration giving a half-maximal response (EC50) of 9 nM.

The compound `COc1c(F)cc(-c2c(CN3CCC3)nc(C)c([C@H](OC(C)(C)C)C(=O)O)c2N2CCC(C)(C)CC2)cc1F` [Example 196, (2S)-2-{6-[(Azetidin-1-yl)methyl]-5-(3,5-difluoro-4-methoxyphenyl)-4-(4,4-dimethylpiperidin-1-yl)-2-methylpyridin-3-yl}-2-(tert-butoxy)acetic acid] showed a concentration for a half-maximal effect (EC50) of 19 nM.

`Cc1ncc(-c2cnc(OCCc3ccc(F)c(F)c3)c(F)c2)c(N2CCC(C)(C)CC2)c1[C@H](OC(C)(C)C)C(=O)O` [Example 392, (2S)-2-(tert-butoxy)-2-{6′-[2-(3,4-difluorophenyl)ethoxy]-4-(4,4-dimethylpiperidin-1-yl)-5′-fluoro-6-methyl-[3,3′-bipyridine]-5-yl}acetic acid]: it took 1 nM to reach a half-maximal effect (EC50).
